{
  "source": "patent EP2687213B1",
  "about": "“Solid forms comprising (+)-2-[1-(3-ethoxy-4-methoxyphenyl)-2-methylsulfonylethyl]-4-acetylaminoisoindoline-1,3-dione, compositions thereof, and uses thereof” (CELGENE CORPORATION, priority 2008, dated 2009)",
  "key": {"[1]": {"assay": "Solid form stability studies (XRPD)", "type": "physicochemical", "protocol": "Stability Studies. The stabilities of Forms A, B, C and D were studied by exposing the solid samples to the stress condition of 40 °C / 75% RH for four weeks. Moreover, the stabilities of Forms A, B, C and D in different solvents were studied by equilibration in different solvents at 40 °C for four weeks. The slurries then were filtered and dried in the air. Solid samples obtained from the stability experiments were analyzed by XRPD and DSC."}, "[2]": {"assay": "Solid form interconversion studies (slurry, XRPD)", "type": "physicochemical", "conditions": "EQ in acetone:ethanol (1:1) at 25 °C, at least 2 days", "protocol": "Interconversion Studies. Interconversion experiments were performed by making slurries of a solid form in a saturated solvent. The slurries were agitated for at least 2 days at about 25 °C. The saturated solution was removed by filtration and the solid was dried in the air."}, "[3]": {"assay": "Hygroscopicity studies (DVS moisture sorption/desorption)", "type": "physicochemical", "conditions": "for solid-state transformation after full adsorption/desorption cycle (XRPD): DVS, 0% to 95% RH and back; for mass change of the starting mass of the sample: RH increased from about 0% to about 95% RH, about 25 °C; for hygroscopicity: moisture sorption analysis, 0% to 95% RH", "protocol": "Hygroscopicity studies. The hygroscopicity of various solid forms was studied using a Surface Measurement Systems DVS instrument. Typically a sample size of between about 10-50 mg was loaded into the DVS instrument sample pan and the sample was analyzed on a DVS automated sorption analyzer at about 25 °C. The relative humidity was increased in increments of about 10% from about 0% to about 95% RH. The relative humidity was then decreased in a similar manner to accomplish a full adsorption/desorption cycle. The mass was recorded at periodic intervals throughout the experiment."}, "[4]": {"assay": "Compression studies (2000 psi, XRPD)", "conditions": "2000 psi for at least one minute"}, "[5]": {"conditions": "EQ in ethanol at 40 °C for 4 weeks"}, "[6]": {"conditions": "EQ in heptane at 40 °C for 4 weeks"}, "[7]": {"conditions": "EQ in toluene at 40 °C for 4 weeks"}, "[8]": {"conditions": "EQ in water at 40 °C for 4 weeks"}},
  "note": "Entries after “also recorded” stand apart in the source; their conditions may differ.",
  "data": [
    {"smiles": "CCOc1cc(C(CS(C)(=O)=O)N2C(=O)c3cccc(NC(C)=O)c3C2=O)ccc1OC", "note": "(single isomer, unassigned; (+)) [Form A, (+)-2-[1-(3-ethoxy-4-methoxyphenyl)-2-methylsulfonylethyl]-4-acetylaminoisoindoline-1,3-dione]", "values": [
      {"measurement": "Analysis by XRPD (resulting form)", "setting": "[1]; 40 °C / 75% RH, 4 weeks", "value": "stable"},
      {"measurement": "Analysis by XRPD (resulting form)", "setting": "[1]; [5]", "value": "stable"},
      {"measurement": "Analysis by XRPD (resulting form)", "setting": "[1]; [6]", "value": "stable"},
      {"measurement": "Analysis by XRPD (resulting form)", "setting": "[1]; [7]", "value": "converts to Form C"},
      {"measurement": "Analysis by XRPD (resulting form)", "setting": "[1]; [8]", "value": "stable"},
      {"measurement": "Analysis by XRPD (resulting form)", "setting": "[2]", "value": "Form B"},
      {"measurement": "solid-state transformation after full adsorption/desorption cycle (XRPD)", "setting": "[3]", "value": "none of the forms analyzed underwent substantial solid-state transformation"},
      {"measurement": "mass change of the starting mass of the sample", "setting": "[3]", "value": "about 0.4%"},
      {"measurement": "hygroscopicity", "setting": "[3]", "value": "substantially nonhygroscopic"},
      {"measurement": "physical stability upon compression (XRPD)", "setting": "[4]", "value": "substantially physically stable"}
    ]},
    {"smiles": "CCOc1cc(C(CS(C)(=O)=O)N2C(=O)c3cccc(NC(C)=O)c3C2=O)ccc1OC", "note": "(single isomer, unassigned; (+)) [Form B, (+)-2-[1-(3-ethoxy-4-methoxyphenyl)-2-methylsulfonylethyl]-4-acetylaminoisoindoline-1,3-dione]", "values": [
      {"measurement": "Analysis by XRPD (resulting form)", "setting": "[1]; 40 °C / 75% RH, 4 weeks", "value": "stable"},
      {"measurement": "Analysis by XRPD (resulting form)", "setting": "[1]; [5]", "value": "stable"},
      {"measurement": "Analysis by XRPD (resulting form)", "setting": "[1]; [6]", "value": "stable"},
      {"measurement": "Analysis by XRPD (resulting form)", "setting": "[1]; [7]", "value": "converts to Form C"},
      {"measurement": "Analysis by XRPD (resulting form)", "setting": "[1]; [8]", "value": "stable"},
      {"measurement": "solid-state transformation after full adsorption/desorption cycle (XRPD)", "setting": "[3]", "value": "none of the forms analyzed underwent substantial solid-state transformation"},
      {"measurement": "mass change of the starting mass of the sample", "setting": "[3]", "value": "about 0.6%"},
      {"measurement": "hygroscopicity", "setting": "[3]", "value": "substantially nonhygroscopic"},
      {"measurement": "physical stability upon compression (XRPD)", "setting": "[4]", "value": "substantially physically stable"}
    ]},
    {"smiles": "CCOc1cc(C(CS(C)(=O)=O)N2C(=O)c3cccc(NC(C)=O)c3C2=O)ccc1OC", "note": "(single isomer, unassigned; (+)) [Form C, (+)-2-[1-(3-ethoxy-4-methoxyphenyl)-2-methylsulfonylethyl]-4-acetylaminoisoindoline-1,3-dione]", "values": [
      {"measurement": "Analysis by XRPD (resulting form)", "setting": "[1]; 40 °C / 75% RH, 4 weeks", "value": "stable"},
      {"measurement": "Analysis by XRPD (resulting form)", "setting": "[1]; [5]", "value": "stable"},
      {"measurement": "Analysis by XRPD (resulting form)", "setting": "[1]; [6]", "value": "stable"},
      {"measurement": "Analysis by XRPD (resulting form)", "setting": "[1]; [7]", "value": "stable"},
      {"measurement": "Analysis by XRPD (resulting form)", "setting": "[1]; [8]", "value": "stable"},
      {"measurement": "Analysis by XRPD (resulting form)", "setting": "[2]", "value": "Form C"},
      {"measurement": "solid-state transformation after full adsorption/desorption cycle (XRPD)", "setting": "[3]", "value": "none of the forms analyzed underwent substantial solid-state transformation"},
      {"measurement": "mass change of the starting mass of the sample", "setting": "[3]", "value": "about 0.5%"},
      {"measurement": "hygroscopicity", "setting": "[3]", "value": "substantially nonhygroscopic"},
      {"measurement": "physical stability upon compression (XRPD)", "setting": "[4]", "value": "substantially physically stable"}
    ]},
    {"smiles": "CCOc1cc(C(CS(C)(=O)=O)N2C(=O)c3cccc(NC(C)=O)c3C2=O)ccc1OC", "note": "(single isomer, unassigned; (+)) [Form D, (+)-2-[1-(3-ethoxy-4-methoxyphenyl)-2-methylsulfonylethyl]-4-acetylaminoisoindoline-1,3-dione]", "values": [
      {"measurement": "Analysis by XRPD (resulting form)", "setting": "[1]; 40 °C / 75% RH, 4 weeks", "value": "stable"},
      {"measurement": "Analysis by XRPD (resulting form)", "setting": "[1]; [5]", "value": "converts to Form B"},
      {"measurement": "Analysis by XRPD (resulting form)", "setting": "[1]; [6]", "value": "converts to Form B"},
      {"measurement": "Analysis by XRPD (resulting form)", "setting": "[1]; [7]", "value": "converts to Form C"},
      {"measurement": "Analysis by XRPD (resulting form)", "setting": "[1]; [8]", "value": "converts to Form B"},
      {"measurement": "Analysis by XRPD (resulting form)", "setting": "[2]", "value": "Form B"},
      {"measurement": "solid-state transformation after full adsorption/desorption cycle (XRPD)", "setting": "[3]", "value": "none of the forms analyzed underwent substantial solid-state transformation"},
      {"measurement": "mass change of the starting mass of the sample", "setting": "[3]", "value": "about 1.5%"},
      {"measurement": "hygroscopicity", "setting": "[3]", "value": "slightly hygroscopic"},
      {"measurement": "physical stability upon compression (XRPD)", "setting": "[4]", "value": "substantially physically stable"}
    ]},
    {"smiles": "CCOc1cc(C(CS(C)(=O)=O)N2C(=O)c3cccc(NC(C)=O)c3C2=O)ccc1OC", "note": "(single isomer, unassigned; (+)) [Form E, (+)-2-[1-(3-ethoxy-4-methoxyphenyl)-2-methylsulfonylethyl]-4-acetylaminoisoindoline-1,3-dione]", "values": [
      {"measurement": "Analysis by XRPD (resulting form)", "setting": "[2]", "value": "Form B"},
      {"measurement": "solid-state transformation after full adsorption/desorption cycle (XRPD)", "setting": "[3]", "value": "none of the forms analyzed underwent substantial solid-state transformation"},
      {"measurement": "mass change of the starting mass of the sample", "setting": "[3]", "value": "about 5.1%"},
      {"measurement": "hygroscopicity", "setting": "[3]", "value": "hygroscopic"}
    ]},
    {"smiles": "CCOc1cc(C(CS(C)(=O)=O)N2C(=O)c3cccc(NC(C)=O)c3C2=O)ccc1OC", "note": "(single isomer, unassigned; (+)) [Form F, (+)-2-[1-(3-ethoxy-4-methoxyphenyl)-2-methylsulfonylethyl]-4-acetylaminoisoindoline-1,3-dione]", "values": [
      {"measurement": "Analysis by XRPD (resulting form)", "setting": "[2]", "value": "stable; also recorded: Form F"},
      {"measurement": "solid-state transformation after full adsorption/desorption cycle (XRPD)", "setting": "[3]", "value": "none of the forms analyzed underwent substantial solid-state transformation"},
      {"measurement": "mass change of the starting mass of the sample", "setting": "[3]", "value": "about 0.2%"},
      {"measurement": "hygroscopicity", "setting": "[3]", "value": "substantially nonhygroscopic"}
    ]},
    {"smiles": "CCOc1cc(C(CS(C)(=O)=O)N2C(=O)c3cccc(NC(C)=O)c3C2=O)ccc1OC", "note": "(single isomer, unassigned; (+)) [Form G, (+)-2-[1-(3-ethoxy-4-methoxyphenyl)-2-methylsulfonylethyl]-4-acetylaminoisoindoline-1,3-dione]", "values": [
      {"measurement": "Analysis by XRPD (resulting form)", "setting": "[2]", "value": "converts to Form B"},
      {"measurement": "solid-state transformation after full adsorption/desorption cycle (XRPD)", "setting": "[3]", "value": "none of the forms analyzed underwent substantial solid-state transformation"},
      {"measurement": "mass change of the starting mass of the sample", "setting": "[3]", "value": "about 0.4%"},
      {"measurement": "hygroscopicity", "setting": "[3]", "value": "substantially nonhygroscopic"}
    ]}
  ]
}
